Measurements from patent US6596719B1 (Actelio Pharmaceuticals Ltd., priority 1999, dated 2003).
pIC50: −log10 of the molar value. Where two headings read alike, the source gives them in different places.

Assays:
[1] = target: T1, human recombinant ETA receptors (Homo sapiens, UniProt P25101); experiment: Inhibition of endothelin binding to membranes from CHO cells carrying human ET receptors (ETA)
T1 construct: expressed in transfected cells; host or cells: CHO cells (microsomal membranes)
T1 sequence (P25101 21-427): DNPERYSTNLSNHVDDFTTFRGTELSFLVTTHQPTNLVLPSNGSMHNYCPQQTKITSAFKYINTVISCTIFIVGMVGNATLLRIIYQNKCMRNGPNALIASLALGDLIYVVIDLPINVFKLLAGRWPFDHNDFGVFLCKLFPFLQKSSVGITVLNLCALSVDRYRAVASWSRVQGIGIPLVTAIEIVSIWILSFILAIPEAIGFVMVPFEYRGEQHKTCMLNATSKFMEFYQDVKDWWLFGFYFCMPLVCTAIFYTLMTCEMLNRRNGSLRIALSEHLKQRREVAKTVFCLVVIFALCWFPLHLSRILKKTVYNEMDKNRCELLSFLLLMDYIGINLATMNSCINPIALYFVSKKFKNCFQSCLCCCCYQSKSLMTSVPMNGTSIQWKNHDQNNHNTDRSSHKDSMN

[2] = target: T2, human recombinant ETB receptors (Homo sapiens, UniProt P24530); experiment: Inhibition of endothelin binding to membranes from CHO cells carrying human ET receptors (ETB)
T2 construct: expressed in transfected cells; host or cells: CHO cells (microsomal membranes)
T2 sequence (P24530 27-442): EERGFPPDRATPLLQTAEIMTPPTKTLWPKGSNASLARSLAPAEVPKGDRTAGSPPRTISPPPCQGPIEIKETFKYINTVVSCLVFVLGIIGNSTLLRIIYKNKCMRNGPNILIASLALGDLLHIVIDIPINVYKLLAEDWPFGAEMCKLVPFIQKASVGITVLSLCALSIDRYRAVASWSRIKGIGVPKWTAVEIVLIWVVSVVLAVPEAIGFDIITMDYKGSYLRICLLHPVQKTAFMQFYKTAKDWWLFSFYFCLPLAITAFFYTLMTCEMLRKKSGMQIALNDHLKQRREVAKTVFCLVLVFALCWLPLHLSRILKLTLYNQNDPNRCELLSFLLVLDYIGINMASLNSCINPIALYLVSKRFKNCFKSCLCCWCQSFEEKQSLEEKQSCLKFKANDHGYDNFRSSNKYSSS
Method: 1) Inhibition of Endothelin Binding to Membranes from CHO Cells Carrying Human ET Receptors:
For competition binding studies, membranes of CHO cells expressing human recombinant ETA or ETB receptors were used. Microsomal membranes from recombinant CHO cells were prepared and the binding assay made as previously described (Breu V., et al, FEBS Lett 1993; 334:210).
The assay was performed in 200 uL 50 mM Tris/HCl buffer, pH 7.4, including 25 mM MnCl2, 1 mM EDTA and 0.5% (w/v) BSA in polypropylene microtiter plates. […]. […] After two h, the membranes were filtered on, filterplates containing GF/C filters (Unifilterplates from Canberra Packard S. A. Zürich, Switzerland). To each well, 50 uL of scintillation cocktail was added (MicroScint 20, Canberra Packard S. A. Zürich, Switzerland) and the filter plates counted in a microplate counter (TopCount, Canberra Packard S. A. Zürich, Switzerland).
All the test compounds were dissolved, diluted and added in DMSO. […] […].

[3] = membranes of CHO cells expressing human recombinant ETA receptors, 8 pM [125I]ET-1, 2 h at 20° C.
[4] = membranes of CHO cells expressing human recombinant ETB receptors, 8 pM [125I]ET-1, 2 h at 20° C.

Row | SMILES | pIC50 [1] | pIC50 [2] | pIC50 [1, 3] | pIC50 [2, 4]
1 | CCS(=O)(=O)NCCOc1nc(C2CC2)nc(NS(=O)(=O)c2ccc(C(C)C)cn2)c1Oc1ccccc1OC [Example 43, 5-i-propyl-N-[6-(2-ethanesulfonylamino-ethoxy)-5-(o-methoxyphenoxy)-2-cyclopropyl-pyrimidin-4-yl]-pyridine-2-sulfonamide] | 7.12 | 6.42 | – | –
2 | CCS(=O)(=O)NCCOc1nc(C2CC2)nc(NS(=O)(=O)c2ccc(C(C)(C)C)cc2)c1Oc1ccccc1OC [Example 44, 4-tert.-butyl-N-[6-(2-ethanesulfonylamino-ethoxy)-5-(o-methoxyphenoxy)-2-cyclopropyl-pyrimidin-4-yl]-benzene-sulfonamide] | – | – | 6.92 | 6.49
3 | COc1ccccc1Oc1c(NS(=O)(=O)c2ccc(C(C)C)cn2)nc(N2CCOCC2)nc1OCCNS(C)(=O)=O [Example 45, 5-isopropyl-N-[6-(2-methanesulfonylamino-ethoxy)-5-(o-methoxyphenoxy)-2-(N-morpholino)-4-pyrimidinyl]-2-pyridine sulfonamide] | 6.60 | 6.47 | – | –
4 | CCCS(=O)(=O)NCCOc1nc(N2CCOCC2)nc(NS(=O)(=O)c2ccc(C(C)C)cn2)c1Oc1ccccc1OC [Example 46, 5-isopropyl-N-[6-(2-(1-propane)sulfonylamino-ethoxy)-5-(o-methoxyphenoxy)-2-(N-morpholino)-4-pyrimidinyl]-2-pyridine sulfonamide] | – | – | 6.85 | 6.99
5 | CCCCS(=O)(=O)NCCOc1nc(C(F)(F)F)nc(NS(=O)(=O)c2ccc(C(C)C)cn2)c1Oc1ccccc1OC [Example 49, 5-i.-propyl-N-[6-(2-butanesulfonylamino-ethoxy)-5-(o-methoxyphenoxy)-2-trifluoromethyl-4-pyrimidinyl]pyridine-2-sulfonamide] | 5.99 | 6.56 | – | –
6 | COc1ccccc1Oc1c(NS(=O)(=O)c2ccc(C(C)(C)C)cc2)nc(-c2ccncc2)nc1OCCNS(=O)(=O)c1cccs1 [Example 51, 4-tert.-butyl-N-[6-(2-(thiophene-2-sulfonylamino)-ethoxy)-5-(o-methoxyphenoxy)-2-(4-pyridyl)-4-pyrimidinyl]-benzene-sulfonamide] | 5.46 | 6.74 | – | –
7 | COc1ccccc1Oc1c(NS(=O)(=O)c2ccc(C(C)C)cn2)nc(C(F)(F)F)nc1OCCNS(=O)(=O)c1cccs1 [Example 54, 5-i.-propyl-N-[6-(2-((2-thiophene)-sulfonylamino)-ethoxy)-5-(o-methoxyphenoxy)-2-trifluoromethyl-4-pyrimidinyl]pyridine-2-sulfonamide] | 5.62 | 6.22 | – | –
8 | COc1ccccc1Oc1c(NS(=O)(=O)c2ccc(C)cn2)nc(N2CCOCC2)nc1OCCNS(=O)(=O)c1ccccc1 [Example 57, 5-methyl-N-[6-(2-(benzenesulfonylamino)-ethoxy)-5-(o-methoxyphenoxy)-2-(N-morpholino)-4-pyrimidinyl]-2-pyridine sulfonamide] | 5.79 | 6.68 | – | –
9 | COc1ccccc1Oc1c(NS(=O)(=O)c2ccc(C(C)(C)C)cc2)nc(C)nc1OCCNS(=O)(=O)c1cccs1 [Example 62, 4-tert.-butyl-N-[6-(2-(2-thiophenesulfonylamino)-ethoxy)-5-(o-methoxyphenoxy)-2-methyl-4-pyrimidinyl]-benzene sulfonamide] | 6.35 | 6.79 | – | –
10 | COc1ccccc1Oc1c(NS(=O)(=O)c2ccc(C(C)C)cn2)nc(-c2ncccn2)nc1OCCNS(=O)(=O)c1cccs1 [Example 68, 5-isopropyl-N-[6-(2-(2-thiophenesulfonylamino)-ethoxy)-5-(o-methoxyphenoxy)-2-(2-pyrimidinyl)-4-pyrimidinyl]-2-pyridine sulfonamide] | 6.32 | 6.77 | – | –
11 | COc1ccccc1Oc1c(NS(=O)(=O)c2ccc(C(C)C)cn2)nc(-c2ccncc2)nc1OCCNS(=O)(=O)c1cccs1 [Example 71] | 6.29 | 6.64 | – | –
12 | CCS(=O)(=O)NCCOc1nc(-c2ccncc2)nc(NS(=O)(=O)c2ccc(C(C)C)cn2)c1Oc1ccccc1OC [Example 73] | 6.63 | 6.27 | – | –
13 | COc1ccccc1Oc1c(NS(=O)(=O)c2ccc(C(C)C)cn2)nc(-c2ccncc2)nc1OCCNS(=O)(=O)C(F)(F)F [Example 74] | 6.27 | 6.03 | – | –
14 | CCS(=O)(=O)NCCOc1nc(-c2ccncc2)nc(NS(=O)(=O)c2ccc(C)cn2)c1Oc1ccccc1OC [Example 77, 5-methyl-N-[6-(2-(ethanesulfonylamino)-ethoxy)-5-(o-methoxyphenoxy)-2-(4-pyridyl)-4-pyrimidinyl]-2-pyridine sulfonamide] | – | – | 6.73 | 5.27
15 | COc1ccccc1Oc1c(NS(=O)(=O)c2ccc(C)cn2)nc(-c2ccncc2)nc1OCCNS(C)(=O)=O [Example 78, 5-methyl-N-[6-(2-(methanesulfonylamino)-ethoxy)-5-(o-methoxyphenoxy)-2-(4-pyridyl)-4-pyrimidinyl]-2-pyridine sulfonamide] | 6.20 | 5.26 | – | –
16 | CCS(=O)(=O)NCCCOc1nc(C2CC2)nc(NS(=O)(=O)c2ccc(C(C)(C)C)cc2)c1Oc1ccccc1OC [Example 79] | 7.43 | < 5.00 | – | –
17 | CCS(=O)(=O)NCCOc1nc(N2CCOCC2)nc(NS(=O)(=O)c2ccc(C(C)(C)C)cc2)c1Oc1ccccc1OC [Example 81, 4-tert.-butyl-N-[6-(2-ethanesulfonylamino-ethoxy)-2-(N-morpholino)-5-(o-methoxyphenoxy)-pyrimidin-4-yl]-benzenesulfonamide] | 6.98 | 5.91 | – | –
18 | CCS(=O)(=O)NCCOc1nc(N2CCN(C)CC2)nc(NS(=O)(=O)c2ccc(C(C)(C)C)cc2)c1Oc1ccccc1OC [Example 82, 4-tert.-butyl-N-[6-(2-ethanesulfonylamino-ethoxy)-2-(N-(N′-methyl)-piperazinyl)-5-(o-methoxyphenoxy)-pyrimidin-4-yl]-benzene-sulfonamide] | 6.51 | 5.45 | – | –
19 | CCS(=O)(=O)NCCCOc1nc(C2CC2)nc(NS(=O)(=O)c2ccc(C(C)C)cn2)c1Oc1ccccc1OC [Example 91, 5-i.-propyl-N-[6-(3-(ethanesulfonylamino)-propoxy)-5-(o-methoxyphenoxy)-2-cyclopropyl-4-pyrimidinyl]-pyridine-2-sulfonamide] | – | – | 7.34 | 6.99
20 | CCCS(=O)(=O)NCCCOc1nc(C2CC2)nc(NS(=O)(=O)c2ccc(C(C)C)cn2)c1Oc1ccccc1OC [Example 92, 5-i.-propyl-N-[6-(3-(propanesulfonylamino)-propoxy)-5-(o-methoxyphenoxy)-2-cyclopropyl-4-pyrimidinyl]-pyridine-2-sulfonamide] | – | – | 7.09 | 7.82
21 | COc1ccccc1Oc1c(NS(=O)(=O)c2ccc(C(C)C)cn2)nc(C2CC2)nc1OCCCNS(=O)(=O)c1cccs1 [Example 93, 5-i.-propyl-N-[6-(3-(2-thiophenesulfonylamino)-propoxy)-5-(o-methoxyphenoxy)-2-cyclopropyl-4-pyrimidinyl]-pyridine-2-sulfonamide] | – | 8.41 | 7.65 | –
22 | COc1ccccc1Oc1c(NS(=O)(=O)c2ccc(C(C)C)cn2)nc(C2CC2)nc1OCCCNS(=O)(=O)c1ccc(C)cc1 [Example 94, 5-i.-propyl-N-[6-(3-(p-toluenesulfonylamino)-propoxy)-5-(o-methoxyphenoxy)-2-cyclopropyl-4-pyrimidinyl]-pyridine-2-sulfonamide] | – | 7.73 | 7.11 | –
